Source: patent EP0339465A2, “Antibacterial composition for oral administration” (MEIJI SEIKA KAISHA LTD., priority 1988, dated 1989)

Assay: Stability in aqueous solution
Format: physicochemical
Settings: aqueous solution of a pH value of 6 or above

CO/N=C(\C(=O)N[C@@H]1C(=O)N2C(C(=O)OCOC(=O)C(C)(C)C)=C(/C=C\c3scnc3C)CS[C@H]12)c1csc(N)n1 [substance ME1207, pivaloyloxymethyl-(6R,7R)-7[(Z)-2-(2-aminothiazol-4-yl)-2-methoxyiminoacetamide]-3-[(Z)-2-(4-methylthiazol-5-yl)ethenyl]cephem-4-carboxylate]
stability in an aqueous solution: unstable
